Reference: PMC10046369, “Low-Affinity/High-Selectivity Dopamine Transport Inhibition Sufficient to Rescue Cognitive Functions in the Aging Rat” (Biomolecules, 2023)

How the values were obtained:
Assay in all cases: biochemical
Design in all cases: KINOMEscan competition binding panel, per cent of control
Settings in all cases: read-out: %Ctrl @ 2800nM
[1] = molecular target: PIKFYVE (Homo sapiens, UniProt Q9Y2I7)
Method in brief: (§1)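 Values are expressed as percent of control, calculated as ((test − positive control)/(negative control − positive control)) × 100, so lower numbers mean stronger hits. Binding was measured by KINOMEscan competition assay in a 450-kinase human panel including disease mutants, using the contractor's validated protocol.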

[2] = molecular target: EGFR(G719S) (Homo sapiens, UniProt P00533, G719S)
Method in brief: as §1

[3] = molecular target: HIPK2 (Homo sapiens, UniProt Q9H2X6)
Method in brief: as §1

[4] = molecular target: IGF1R (Homo sapiens, UniProt P08069)
Method in brief: as §1

[5] = molecular target: T1, ABL1(Y253F)-phosphorylated (Homo sapiens, UniProt P00519, Y253F)
T1 construct: phosphorylated
Method in brief: as §1

[6] = molecular target: PRKCE (Homo sapiens, UniProt Q02156)
Method in brief: as §1

[7] = molecular target: T2, MLK1 (Homo sapiens, UniProt P80192)
T2 construct: gene MAP3K9
Method in brief: as §1

[8] = molecular target: PLK1 (Homo sapiens, UniProt P53350)
Method in brief: as §1

[9] = molecular target: ALK(C1156Y) (Homo sapiens, UniProt Q9UM73, C1156Y)
Method in brief: as §1

[10] = molecular target: STK16 (Homo sapiens, UniProt O75716)
Method in brief: as §1

[11] = molecular target: MAP3K1 (Homo sapiens, UniProt Q13233)
Method in brief: as §1

[12] = molecular target: T3, ABL1(Q252H)-phosphorylated (Homo sapiens, UniProt P00519, Q252H)
T3 construct: phosphorylated
Method in brief: as §1

[13] = molecular target: AURKC (Homo sapiens, UniProt Q9UQB9)
Method in brief: as §1

[14] = molecular target: PKN1 (Homo sapiens, UniProt Q16512)
Method in brief: as §1

[15] = molecular target: DDR1 (Homo sapiens, UniProt Q08345)
Method in brief: as §1

[16] = molecular target: PIK3C2B (Homo sapiens, UniProt O00750)
Method in brief: as §1

[17] = molecular target: TNK2 (Homo sapiens, UniProt Q07912)
Method in brief: as §1

[18] = molecular target: PRKD1 (Homo sapiens, UniProt Q15139)
Method in brief: as §1

[19] = molecular target: T4, TAK1 (Homo sapiens, UniProt O43318)
T4 construct: gene MAP3K7
Method in brief: as §1

[20] = molecular target: HASPIN (Homo sapiens, UniProt Q8TF76)
Method in brief: as §1

[21] = molecular target: MAP3K3 (Homo sapiens, UniProt Q99759)
Method in brief: as §1

[22] = molecular target: MTOR (Homo sapiens, UniProt P42345)
Method in brief: as §1

[23] = molecular target: T5, p38-alpha (Homo sapiens, UniProt Q16539)
T5 construct: gene MAPK14
Method in brief: as §1

[24] = molecular target: T6, ABL1(Q252H)-nonphosphorylated (Homo sapiens, UniProt P00519, Q252H)
T6 construct: nonphosphorylated
Method in brief: as §1

[25] = molecular target: STK36 (Homo sapiens, UniProt Q9NRP7)
Method in brief: as §1

[26] = molecular target: HCK (Homo sapiens, UniProt P08631)
Method in brief: as §1

STK16, sequence (O75716 whole entry): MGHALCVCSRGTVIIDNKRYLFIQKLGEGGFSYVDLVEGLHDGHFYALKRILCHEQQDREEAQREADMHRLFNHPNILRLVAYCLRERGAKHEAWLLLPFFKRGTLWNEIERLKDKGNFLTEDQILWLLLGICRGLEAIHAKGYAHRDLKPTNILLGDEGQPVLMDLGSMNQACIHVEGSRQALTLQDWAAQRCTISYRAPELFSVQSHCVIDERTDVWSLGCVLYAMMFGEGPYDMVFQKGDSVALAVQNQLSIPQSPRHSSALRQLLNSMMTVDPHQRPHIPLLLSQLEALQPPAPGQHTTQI
PIK3C2B, sequence (O00750 whole entry): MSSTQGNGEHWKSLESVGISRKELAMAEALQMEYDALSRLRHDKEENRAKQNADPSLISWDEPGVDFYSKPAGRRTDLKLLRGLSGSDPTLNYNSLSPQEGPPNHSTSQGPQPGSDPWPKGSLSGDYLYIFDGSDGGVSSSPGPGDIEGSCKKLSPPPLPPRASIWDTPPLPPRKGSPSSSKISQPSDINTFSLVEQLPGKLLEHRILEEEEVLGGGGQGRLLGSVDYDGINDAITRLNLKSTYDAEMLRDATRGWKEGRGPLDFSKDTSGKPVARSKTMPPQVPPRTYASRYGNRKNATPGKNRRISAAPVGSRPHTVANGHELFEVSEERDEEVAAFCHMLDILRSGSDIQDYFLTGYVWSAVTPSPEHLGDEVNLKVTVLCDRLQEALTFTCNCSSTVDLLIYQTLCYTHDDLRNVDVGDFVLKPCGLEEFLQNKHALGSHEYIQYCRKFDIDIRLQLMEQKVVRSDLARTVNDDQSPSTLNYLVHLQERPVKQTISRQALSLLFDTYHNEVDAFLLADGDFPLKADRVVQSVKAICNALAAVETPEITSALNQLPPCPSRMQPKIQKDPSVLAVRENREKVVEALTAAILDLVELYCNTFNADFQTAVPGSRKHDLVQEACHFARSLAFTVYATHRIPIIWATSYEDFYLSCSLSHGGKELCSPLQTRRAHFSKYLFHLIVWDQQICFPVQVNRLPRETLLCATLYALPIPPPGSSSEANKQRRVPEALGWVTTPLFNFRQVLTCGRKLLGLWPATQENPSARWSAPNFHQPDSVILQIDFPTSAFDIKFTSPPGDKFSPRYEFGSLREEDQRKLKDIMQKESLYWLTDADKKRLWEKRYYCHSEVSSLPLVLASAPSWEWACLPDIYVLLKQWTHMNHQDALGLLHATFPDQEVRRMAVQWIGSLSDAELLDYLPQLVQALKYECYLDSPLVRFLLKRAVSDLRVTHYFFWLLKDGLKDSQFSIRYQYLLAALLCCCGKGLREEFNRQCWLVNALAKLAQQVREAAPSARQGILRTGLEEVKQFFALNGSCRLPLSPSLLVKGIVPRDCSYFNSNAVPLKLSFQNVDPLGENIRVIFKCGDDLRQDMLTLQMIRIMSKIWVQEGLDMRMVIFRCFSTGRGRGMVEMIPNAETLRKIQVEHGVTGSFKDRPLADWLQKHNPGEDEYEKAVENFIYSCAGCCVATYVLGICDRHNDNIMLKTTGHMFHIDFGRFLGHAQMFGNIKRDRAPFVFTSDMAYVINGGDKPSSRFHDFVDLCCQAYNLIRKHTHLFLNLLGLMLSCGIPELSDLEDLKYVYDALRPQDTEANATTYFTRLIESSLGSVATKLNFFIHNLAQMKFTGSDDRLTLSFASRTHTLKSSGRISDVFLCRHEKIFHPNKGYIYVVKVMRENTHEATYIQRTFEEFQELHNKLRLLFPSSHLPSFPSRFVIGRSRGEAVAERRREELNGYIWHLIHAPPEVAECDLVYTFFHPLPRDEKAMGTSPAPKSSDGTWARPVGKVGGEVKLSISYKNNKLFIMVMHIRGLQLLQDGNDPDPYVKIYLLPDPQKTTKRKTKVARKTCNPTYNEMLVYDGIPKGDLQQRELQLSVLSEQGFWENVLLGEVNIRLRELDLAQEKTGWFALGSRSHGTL
HIPK2, sequence (Q9H2X6 whole entry): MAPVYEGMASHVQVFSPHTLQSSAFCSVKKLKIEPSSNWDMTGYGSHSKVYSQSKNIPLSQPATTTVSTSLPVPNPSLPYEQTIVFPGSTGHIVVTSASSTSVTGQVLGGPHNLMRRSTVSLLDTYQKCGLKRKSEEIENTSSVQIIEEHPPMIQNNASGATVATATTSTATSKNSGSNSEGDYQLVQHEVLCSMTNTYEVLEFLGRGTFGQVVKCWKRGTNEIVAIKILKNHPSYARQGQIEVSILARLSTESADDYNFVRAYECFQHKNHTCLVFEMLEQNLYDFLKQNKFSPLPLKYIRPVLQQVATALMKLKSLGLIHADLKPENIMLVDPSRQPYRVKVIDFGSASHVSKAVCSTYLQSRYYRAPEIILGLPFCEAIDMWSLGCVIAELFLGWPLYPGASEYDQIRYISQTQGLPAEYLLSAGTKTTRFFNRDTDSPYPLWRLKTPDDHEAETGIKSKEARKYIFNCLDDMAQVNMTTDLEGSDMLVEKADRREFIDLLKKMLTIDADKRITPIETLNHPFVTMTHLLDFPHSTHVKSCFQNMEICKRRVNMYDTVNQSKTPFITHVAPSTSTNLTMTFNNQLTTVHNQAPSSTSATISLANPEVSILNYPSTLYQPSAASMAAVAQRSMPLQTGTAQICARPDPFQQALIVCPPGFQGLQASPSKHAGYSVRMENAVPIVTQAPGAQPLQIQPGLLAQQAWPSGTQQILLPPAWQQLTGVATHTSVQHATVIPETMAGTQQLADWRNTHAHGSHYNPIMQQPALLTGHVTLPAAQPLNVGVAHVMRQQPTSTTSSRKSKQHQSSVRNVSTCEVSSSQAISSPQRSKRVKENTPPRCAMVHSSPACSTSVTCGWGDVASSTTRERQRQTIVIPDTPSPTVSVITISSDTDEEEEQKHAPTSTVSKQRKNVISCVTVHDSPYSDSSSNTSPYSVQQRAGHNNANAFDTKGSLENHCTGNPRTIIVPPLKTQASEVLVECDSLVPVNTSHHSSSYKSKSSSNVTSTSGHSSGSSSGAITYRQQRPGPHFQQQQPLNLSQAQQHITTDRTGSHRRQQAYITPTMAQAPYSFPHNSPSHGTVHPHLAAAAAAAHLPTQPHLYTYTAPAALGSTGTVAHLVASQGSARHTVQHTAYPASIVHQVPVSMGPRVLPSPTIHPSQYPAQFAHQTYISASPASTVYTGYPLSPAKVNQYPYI
T2 sequence (P80192 whole entry): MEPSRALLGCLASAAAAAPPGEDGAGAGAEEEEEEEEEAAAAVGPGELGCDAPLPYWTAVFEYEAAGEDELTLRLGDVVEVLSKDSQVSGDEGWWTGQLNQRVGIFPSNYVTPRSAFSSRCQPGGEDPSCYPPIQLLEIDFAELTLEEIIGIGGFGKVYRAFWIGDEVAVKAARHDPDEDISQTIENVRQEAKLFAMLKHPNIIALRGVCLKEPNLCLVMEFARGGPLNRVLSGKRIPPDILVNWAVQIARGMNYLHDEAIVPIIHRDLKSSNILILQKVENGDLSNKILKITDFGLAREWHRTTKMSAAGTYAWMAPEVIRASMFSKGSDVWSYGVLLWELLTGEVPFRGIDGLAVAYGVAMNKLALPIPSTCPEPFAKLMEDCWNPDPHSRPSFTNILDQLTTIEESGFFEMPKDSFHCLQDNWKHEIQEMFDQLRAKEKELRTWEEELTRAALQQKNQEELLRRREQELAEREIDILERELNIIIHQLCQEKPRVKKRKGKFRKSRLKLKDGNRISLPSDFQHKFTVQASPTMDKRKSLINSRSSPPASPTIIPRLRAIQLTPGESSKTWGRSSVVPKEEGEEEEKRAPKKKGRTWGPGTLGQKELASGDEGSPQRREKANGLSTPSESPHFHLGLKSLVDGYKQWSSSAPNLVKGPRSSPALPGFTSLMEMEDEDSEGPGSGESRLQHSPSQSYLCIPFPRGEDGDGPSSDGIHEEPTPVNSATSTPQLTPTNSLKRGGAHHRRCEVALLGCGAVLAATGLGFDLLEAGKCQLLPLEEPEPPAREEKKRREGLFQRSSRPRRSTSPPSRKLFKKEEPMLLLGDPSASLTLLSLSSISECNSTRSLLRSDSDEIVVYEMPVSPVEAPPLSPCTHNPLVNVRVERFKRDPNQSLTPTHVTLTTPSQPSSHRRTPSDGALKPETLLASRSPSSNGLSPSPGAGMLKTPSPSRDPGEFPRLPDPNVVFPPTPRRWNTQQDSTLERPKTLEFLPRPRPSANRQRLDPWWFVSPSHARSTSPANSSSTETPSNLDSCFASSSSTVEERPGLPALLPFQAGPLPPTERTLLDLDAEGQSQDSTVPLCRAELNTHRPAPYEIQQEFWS
HCK, sequence (P08631 whole entry): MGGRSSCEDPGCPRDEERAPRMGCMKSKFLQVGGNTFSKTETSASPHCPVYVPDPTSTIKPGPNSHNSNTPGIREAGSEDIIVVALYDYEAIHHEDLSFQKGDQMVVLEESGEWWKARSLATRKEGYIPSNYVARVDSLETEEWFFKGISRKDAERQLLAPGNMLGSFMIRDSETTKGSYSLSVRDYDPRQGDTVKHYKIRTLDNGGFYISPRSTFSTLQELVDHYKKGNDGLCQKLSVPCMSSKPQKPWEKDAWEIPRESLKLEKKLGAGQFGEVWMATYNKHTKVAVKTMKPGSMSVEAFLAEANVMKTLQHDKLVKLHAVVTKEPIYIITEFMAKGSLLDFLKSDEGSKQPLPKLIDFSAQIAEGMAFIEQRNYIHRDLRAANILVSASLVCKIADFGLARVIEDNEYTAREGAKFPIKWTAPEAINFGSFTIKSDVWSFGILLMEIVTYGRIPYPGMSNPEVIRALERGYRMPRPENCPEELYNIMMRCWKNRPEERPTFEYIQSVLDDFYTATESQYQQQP
AURKC, sequence (Q9UQB9 whole entry): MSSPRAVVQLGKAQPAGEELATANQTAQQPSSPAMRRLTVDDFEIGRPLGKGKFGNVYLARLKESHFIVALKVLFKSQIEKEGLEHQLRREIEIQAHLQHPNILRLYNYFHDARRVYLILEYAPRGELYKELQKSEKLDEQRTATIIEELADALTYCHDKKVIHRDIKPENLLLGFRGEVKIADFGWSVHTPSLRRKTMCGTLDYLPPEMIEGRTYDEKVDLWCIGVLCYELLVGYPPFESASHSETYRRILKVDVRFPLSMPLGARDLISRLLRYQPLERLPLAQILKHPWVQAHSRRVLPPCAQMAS

SMILES: [O-][S@@+](Cc1cncs1)C(c1ccccc1)c1ccccc1 [S-CE-123, (S)-5-((Benzhydrylsulfinyl)Methyl)Thiazole]
- remaining binding at 2.8 µM [1]: 100%
- remaining binding at 2.8 µM [2]: 77%
- remaining binding at 2.8 µM [3]: 100%
- remaining binding at 2.8 µM [4]: 94%
- remaining binding at 2.8 µM [5]: 93%
- remaining binding at 2.8 µM [6]: 100%
- remaining binding at 2.8 µM [7]: 100%
- remaining binding at 2.8 µM [8]: 79%
- remaining binding at 2.8 µM [9]: 100%
- remaining binding at 2.8 µM [10]: 97%
- remaining binding at 2.8 µM [11]: 85%
- remaining binding at 2.8 µM [12]: 84%
- remaining binding at 2.8 µM [13]: 100%
- remaining binding at 2.8 µM [14]: 100%
- remaining binding at 2.8 µM [15]: 100%
- remaining binding at 2.8 µM [16]: 98%
- remaining binding at 2.8 µM [17]: 100%
- remaining binding at 2.8 µM [18]: 92%
- remaining binding at 2.8 µM [19]: 71%
- remaining binding at 2.8 µM [20]: 95%
- remaining binding at 2.8 µM [21]: 86%
- remaining binding at 2.8 µM [22]: 100%
- remaining binding at 2.8 µM [23]: 100%
- remaining binding at 2.8 µM [24]: 66%
- remaining binding at 2.8 µM [25]: 88%
- remaining binding at 2.8 µM [26]: 99%
